Data: the NIST ThermoML archive (doi:10.1016/j.jct.2012.10.008)
Numbers after ± are expanded uncertainties.

Assay: xn = mol fraction of the nth substance listed
Details: 101 kPa, Liquid; for viscosity: Falling or rolling sphere viscometry; for mass density: Vibrating tube method

CCCC[NH3+].O=[N+]([O-])[O-] [n-butylammonium nitrate] + CCO
Details	mass density, 293.15 K [kg/m3]	mass density, 298.15 K [kg/m3]	mass density, 303.15 K [kg/m3]	mass density, 308.15 K [kg/m3]	mass density, 313.15 K [kg/m3]	viscosity, 293.15 K [mPa·s]	viscosity, 298.15 K [mPa·s]	viscosity, 303.15 K [mPa·s]	viscosity, 308.15 K [mPa·s]	viscosity, 313.15 K [mPa·s]
x1 = 0.0995	858.45 ± 0.18	854.53 ± 0.18	850.59 ± 0.18	846.63 ± 0.18	842.66 ± 0.19	2.5 ± 0.021	2.251 ± 0.019	2.036 ± 0.017	1.846 ± 0.016	1.682 ± 0.014
x1 = 0.1997	910.07 ± 0.3	906.36 ± 0.3	902.64 ± 0.3	898.9 ± 0.3	895.16 ± 0.3	4.379 ± 0.043	3.895 ± 0.038	3.486 ± 0.034	3.134 ± 0.031	2.827 ± 0.028
x1 = 0.2999	951.56 ± 0.55	947.99 ± 0.55	944.41 ± 0.54	940.85 ± 0.54	937.28 ± 0.54	7.388 ± 0.084	6.633 ± 0.076	5.868 ± 0.067	5.192 ± 0.059	4.591 ± 0.052
x1 = 0.3998	985.07 ± 0.93	981.61 ± 0.92	978.16 ± 0.92	974.71 ± 0.91	971.27 ± 0.91	12.29 ± 0.16	10.67 ± 0.14	9.285 ± 0.12	8.205 ± 0.11	7.25 ± 0.096
x1 = 0.5005	1012.9 ± 1.5	1009.57 ± 1.4	1006.2 ± 1.4	1003.2 ± 1.4	999.76 ± 1.4	18.53 ± 0.28	15.89 ± 0.24	13.78 ± 0.21	12.04 ± 0.18	10.57 ± 0.16
x1 = 0.6501	1047.63 ± 2.6	1044.37 ± 2.5	1041.1 ± 2.5	1037.86 ± 2.5	1034.62 ± 2.5	32.66 ± 0.6	27.42 ± 0.5	23.15 ± 0.42	19.83 ± 0.36	17.12 ± 0.31
x1 = 0.8003	1075.57 ± 4	1072.36 ± 4	1069.17 ± 4	1066 ± 4	1062.84 ± 3.9	56.97 ± 1.2	46.57 ± 1	38.82 ± 0.84	32.55 ± 0.7	27.74 ± 0.6
x1 = 0.8989	1090.94 ± 5.2	1087.76 ± 5.2	1084.6 ± 5.2	1081.46 ± 5.1	1078.34 ± 5.1	79.51 ± 2.2	65.34 ± 1.6	53.93 ± 1.2	44.86 ± 1.1	37.86 ± 0.9
x1 = 1	1104.68 ± 6.6	1101.52 ± 6.6	1098.38 ± 6.5	1095.26 ± 6.5	1092.17 ± 6.5	111.35 ± 4.1	89.95 ± 2.9	73.04 ± 2.1	60.25 ± 1.6	50.12 ± 1.3

CCCC[NH3+].O=[N+]([O-])[O-] [n-butylammonium nitrate] + CCCCO
Details	mass density, 293.15 K [kg/m3]	mass density, 298.15 K [kg/m3]	mass density, 303.15 K [kg/m3]	mass density, 308.15 K [kg/m3]	mass density, 313.15 K [kg/m3]	viscosity, 293.15 K [mPa·s]	viscosity, 298.15 K [mPa·s]	viscosity, 303.15 K [mPa·s]	viscosity, 308.15 K [mPa·s]	viscosity, 313.15 K [mPa·s]
x1 = 0.1004	851.35 ± 0.18	847.7 ± 0.18	844.02 ± 0.18	840.32 ± 0.18	836.6 ± 0.18	5.242 ± 0.045	4.554 ± 0.039	3.985 ± 0.034	3.506 ± 0.03	3.099 ± 0.026
x1 = 0.1999	888.16 ± 0.29	884.59 ± 0.29	881 ± 0.29	877.4 ± 0.29	873.79 ± 0.29	–	6.852 ± 0.067	5.961 ± 0.058	5.217 ± 0.051	4.592 ± 0.045
x1 = 0.2993	922.05 ± 0.53	918.6 ± 0.52	915.12 ± 0.52	911.54 ± 0.52	908.03 ± 0.52	11.36 ± 0.13	9.747 ± 0.11	8.447 ± 0.096	7.302 ± 0.083	6.344 ± 0.072
x1 = 0.3992	953.58 ± 0.88	950.14 ± 0.88	946.7 ± 0.87	943.25 ± 0.87	939.81 ± 0.86	17.51 ± 0.23	14.95 ± 0.2	12.76 ± 0.17	11.03 ± 0.15	9.601 ± 0.13
x1 = 0.4955	982.07 ± 1.4	978.69 ± 1.4	975.31 ± 1.3	971.93 ± 1.3	968.56 ± 1.3	24.22 ± 0.37	20.34 ± 0.31	17.34 ± 0.26	14.86 ± 0.23	12.88 ± 0.2
x1 = 0.6508	1024.4 ± 2.4	1021.11 ± 2.4	1017.81 ± 2.4	1014.53 ± 2.4	1011.26 ± 2.4	38.67 ± 0.71	31.95 ± 0.59	26.79 ± 0.49	22.66 ± 0.42	19.51 ± 0.36
x1 = 0.801	1061.11 ± 3.9	1057.88 ± 3.9	1054.67 ± 3.9	1051.47 ± 3.9	1048.29 ± 3.8	60.58 ± 1.3	49.4 ± 1.1	40.82 ± 0.89	34.2 ± 0.74	28.96 ± 0.63
x1 = 0.8998	1083.71 ± 5.2	1080.52 ± 5.1	1077.34 ± 5.1	1074.19 ± 5.1	1071.05 ± 5	83.12 ± 2.4	68.14 ± 1.7	56.15 ± 1.3	46.69 ± 1.1	39.11 ± 0.93
x1 = 1	1104.68 ± 6.6	1101.52 ± 6.6	1098.38 ± 6.5	1095.26 ± 6.5	1092.17 ± 6.5	111.35 ± 4.1	89.95 ± 2.9	73.04 ± 2.1	60.25 ± 1.6	50.12 ± 1.3
